From US20060234986A1, “Use of TAFI inhibitors for enhanced myocardial reperfusion and facilitated PCI” (Schering Aktiengesellschaft, priority 2005, published 2006)

Test system: LPS-induced impairment of fibrinolysis (lung fibrin deposition)
Test: Rat lung fibrin deposition model (batroxobin, 125I-fibrinogen, LPS)
Format: in vivo
Experimental: This model was used to test the hypothesis that inhibition of endogenous TAFI can enhance fibrinolysis. Batroxobin, a thrombin-like enzyme, was used to hydrolyze fibrinogen to fibrin, which deposits in tissues, especially in the lungs. Following tissue deposition, fibrin is lysed into fibrin degradation products, which return to the blood. In this study, ^125I-labeled fibrinogen was given and tissue accumulation of fibrin and the subsequent fibrinolysis were assessed by the mobilization of ^125I from blood to tissue (generation of ^125I-fibrin from ^125I-fibrinogen) and back to blood (generation of ^125I-fibrin degradation products from ^125I-fibrin) after batroxobin injection. LPS has been known to stinulate the release of numerous endogenous factors that can inhibit fibrinolytic activity, including TAFI, thus preventing spontaneous fibrinolysis in the lungs.
Male Sprague-Dawley rates (300-350g) were randomly divided into three groups: • (1) untreated (controls) • (2) treated with LPS • (3) treated with LPS+TAFI inhibitor. Animals assigned to receive LPS (0.5 mg/kg, iv) were injected 3 hours before batroxobin injection. Twenty minutes before batroxobin injection, all animals were anesthetized with pentobarbital (65 mg/kg, ip), and saline-filled catheters were placed into the right carotid artery and left jugular vein for blood collection and drug injection, respectively. ^125I-fibrinogen (1 mCi) was administered to all animals 10 min. prior to batroxobin injection and animals assigned to receive the TAFI inhibitor (10 mg/kg) were injected 5 min. before the batroxobin. The rats were sacrificed at either 5 or 30 min after batroxobin injection.

CC(C)[C@H](NS(=O)(=O)CCCc1ccccc1)P(=O)(O)C[C@H](C(=O)O)c1cccc(CN)c1.O=C(O)C(F)(F)F [TAFI inhibitor, (2S)-2-(3-(amino)methylphenyl)-3-(((1R)-1-(3-phenylpropylsulfonyl)amino-2-methylpropyl)(hydroxy)phosphinoyl)propanoic acid trifluoroacetate]
CPM in the lungs versus control rats (LPS + TAFI inhibitor 10 mg/kg, 30 min after batroxobin): not different
Blood CPM and 125I in the lungs (LPS + TAFI inhibitor 10 mg/kg, 30 min after batroxobin, versus LPS-treated rats): prevented LPS-induced recovery of blood CPM and resulted in ^125I retention in the lungs
Radioactive readings in blood or lungs (TAFI inhibitor 10 mg/kg in LPS-treated rats, 5 min after batroxobin, in relation to LPS-treated rats): did not change
